Test results as given in patent publication US10583119B2, “Compounds, compositions and methods for making the same” (Signum Biosciences, Inc., priority 2008, dated 2020).

Legend:
[1] = molecular target: T1, protein phosphatase specific protein methylesterase (MEase) (Homo sapiens, UniProt Q9Y570); test: PP2A demethylation with [3H]-SAM and purified proteins (methylesterase activity); type: biochemical; settings: purified methylated PP2A and MEase; read-out: ME (IC50)
T1 construct: made in house
T1 sequence (Q9Y570 1-386): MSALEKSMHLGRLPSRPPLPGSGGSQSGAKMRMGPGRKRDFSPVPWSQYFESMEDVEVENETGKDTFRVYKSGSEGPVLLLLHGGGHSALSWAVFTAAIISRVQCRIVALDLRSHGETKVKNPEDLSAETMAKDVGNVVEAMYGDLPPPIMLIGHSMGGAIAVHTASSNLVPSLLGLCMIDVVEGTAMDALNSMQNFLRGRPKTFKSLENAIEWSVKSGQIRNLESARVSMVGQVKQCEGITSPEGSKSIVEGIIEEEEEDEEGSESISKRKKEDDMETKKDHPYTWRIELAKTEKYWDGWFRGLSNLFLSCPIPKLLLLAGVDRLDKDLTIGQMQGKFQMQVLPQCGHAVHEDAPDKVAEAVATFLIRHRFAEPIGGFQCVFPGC
Procedure: PP2A (methylated and unmethylated) were eluted with 1.6 mL of Buffer A containing 350 mM NaCl. Fractions (0.2 mL each) were collected and the radioactivity in each fraction was measured using the scintillation counter (LS 6000SE, Beckman). Fractions with highest radioactivity were containing purified methylated PP2A were pooled with a total volume of 0.6 mL-0.8 mL. Purified methylated PP2A (50 nM-100 nM) was incubated with MEase (5 nM-20 nM) in 20 μl-50 μl reaction at room temperature for 30 minutes. The reaction was terminated by adding TCA (2 μl-6 μl) to a final concentration of 10%. Released [^3H]-methanol in supernatants was counted with scintillation counter (LS 6000SE, Beckman).

PP2A = molecular target: T2, PP2A (Homo sapiens, UniProt P67775); test: Phosphatase activity of PP2A using phosphorylase a as substrate; type: biochemical; settings: un-methylated PP2A, protein substrate phosphorylase a, absence of ME and MT
T2 construct: made in house
T2 sequence (P67775 whole entry): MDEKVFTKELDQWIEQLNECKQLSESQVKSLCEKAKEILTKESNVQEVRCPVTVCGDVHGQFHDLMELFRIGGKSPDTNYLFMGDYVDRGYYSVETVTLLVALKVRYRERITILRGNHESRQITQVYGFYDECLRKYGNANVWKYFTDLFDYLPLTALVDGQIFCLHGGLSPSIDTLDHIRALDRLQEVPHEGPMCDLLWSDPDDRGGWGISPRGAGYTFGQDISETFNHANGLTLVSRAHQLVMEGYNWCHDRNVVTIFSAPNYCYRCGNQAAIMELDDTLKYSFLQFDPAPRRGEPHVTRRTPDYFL
T2 sequence (P30153 whole entry partner): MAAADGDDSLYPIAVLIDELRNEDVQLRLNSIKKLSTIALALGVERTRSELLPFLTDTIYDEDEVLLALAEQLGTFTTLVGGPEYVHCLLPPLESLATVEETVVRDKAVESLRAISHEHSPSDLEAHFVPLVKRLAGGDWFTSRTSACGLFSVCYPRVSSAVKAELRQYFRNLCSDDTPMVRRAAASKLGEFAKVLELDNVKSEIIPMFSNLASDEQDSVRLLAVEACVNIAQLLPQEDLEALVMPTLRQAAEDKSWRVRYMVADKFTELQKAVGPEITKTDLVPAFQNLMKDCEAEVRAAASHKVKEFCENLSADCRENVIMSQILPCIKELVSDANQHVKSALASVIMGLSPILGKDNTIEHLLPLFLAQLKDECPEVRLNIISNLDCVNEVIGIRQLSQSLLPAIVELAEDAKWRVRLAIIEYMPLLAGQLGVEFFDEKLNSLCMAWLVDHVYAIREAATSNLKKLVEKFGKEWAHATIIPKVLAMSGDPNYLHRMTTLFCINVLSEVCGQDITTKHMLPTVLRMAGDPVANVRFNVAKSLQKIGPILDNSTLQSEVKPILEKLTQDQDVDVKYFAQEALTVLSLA
Procedure: After the reaction, proteins were precipitated by 50% (NH4)2SO4 (final concentration) twice, and collected by centrifugation. The pellet was re-dissolved and dialyzed in a buffer containing 50 mM Tris-HCl (pH6.9) and ImM DTT for 2×2 L at 4° C. overnight. Phosphorylase a (phospho-phosphorylase b) crystallized during the dialysis. The dialysate was centrifuged 14,000 r.p.m at 4° C. for 30 minutes, the supernatant was removed and purified ^32P-labelled phosphorylase a was re-dissolved in +50% glycerol, and stored at −20° C.
To measure PP2A's phosphatase activity, PP2A (5-20 nM) was incubated with phosphorylase a (5-10 μM) at 37° C. 10% TCA (final concentration) and was added to the reaction to precipitate proteins. Supernatant that contains free ^32P-phosphate group was added into scintillation counting solution (Ecoscint, National Diagnostics), and counted by scintillation counter (LS 6000SE, Beckman).

## CCCCCCCCCCCCCCCCCCCC(=O)NCCc1c[nH]c2ccc(O)cc12 [Compound I-63, N-(2-(5-hydroxy-1H-indol-3-yl)ethyl)icosanamide]
[1]
  IC50: < 10 µM
PP2A
  IC50: > 100 µM
